# Laboratory results taken from patent US20160115200A1, “New Use for JNK Inhibitor Molecules for Treatment of Various Diseases” (XIGEN INFLAMMATION LTD., priority 2013, published 2016).
# Square brackets hold non-standard residues; d marks the D form. Ends that are not written are not given here.
# What was measured:
# [1] = test system: primary rat lymph-nodes purified T cells; assay: CD3/CD28-induced IL-2 release in primary rat lymph-nodes purified T cells; assay type: cell-based; settings: inhibitor 1 h before CD3/CD28 (2 μg/mL), supernatant after 24 h
# Method: Control rat were sacrificed and lymph-nodes were harvested. T cells further were purified (using magnetic negative selection) and plated into 96-well plates at 200.000 cells/well. Cells were treated with anti-rat CD3 and anti-rat CD28 antibodies (2 μg/mL). JNK inhibitor with SEQ ID NO: 172 was added to the cultures 1 h before CD3/CD28 treatment and IL-2 release was assessed in supernatant 24 h after treatment.
# Control animal were sacrificed, lymph nodes (LN) were harvested and kept in complete RPMI medium. LN were smashed with complete RPMI on 70 μm filter using a 5 ml piston. A few drops of media were added to keep strainer wet. Cells were centrifuged for 7 min at 450 g and 4° C. Pellet was resuspended in 5 ml fresh medium. Cells were passed again through cell strainer. An aliquot of cells was counted, while cells were centrifuged again 10 min at 1400 rpm and 4° C. Cells were resupended in MACS buffer (80 μl of MACS buffer per 10^7 cells). 10 μl of anti-rat MHC microbeads were added per 10 million cells, cells were incubated for 15 min at 4°-8° C. Cells were washed with 15 ml MACS buffer and centrifuge for 7 min at 700 g and 4° C. […] Resuspended cells were counted and plated at density of 200000 cells/well in 100 μl of complete medium. […] Cytokines were then measured using standard Elisa kits. Results are expressed as pg/ml of supernatant of the measured cytokine. […]
# [2] = test system: endotoxins-induced uveitis albino rat model; assay: Endotoxins-induced uveitis (EIU), single intravenous injection, clinical scoring 24 h after LPS; assay type: in vivo; set-up: key to EIU clinical score, median: clinical score per eye, 0 to 4 scale
# Method: The aim of this study was to determine the effects of single intravenous injections of SEQ ID NO: 172 (0.015, 0.18, and 1.80 mg/kg) on the inflammatory response in an endotoxins-induced uveitis albino rat model and to compare these affects to those obtained with prior art JNK inhibitor of SEQ ID NO: 197 (2 mg/kg). As a further control served phosphate sodic dexamethasone.
# Sixty (60) male Lewis rats were randomly divided into six (6) groups of ten (10) animals each. EIU was induced by footpad injection of lipopolysaccharide (LPS, 1 mg/kg). NaCl (0.9%), SEQ ID NO: 197 at 2 mg/kg and SEQ ID NO: 172 at three concentrations (1.80 mg/kg, 0.18 mg/kg and 0.015 mg/kg) were administered by intravenous injection. Phosphate sodic dexamethasone (20 μg/eye) was administered by sub-conjunctival injection in both eyes. 24 hours after LPS injection, inflammatory response was evaluated by clinical scoring.
# The intensity of clinical ocular inflammation was scored on a scale from 0 to 4 for each eye: […]
# [3] = test system: mouse model of scopolamine-induced dry eye; assay: Scopolamine-induced dry eye in mice (TBUT, PRTT, histopathology); assay type: in vivo
# Excerpt: The objective of this study was to assess the effects of two different compounds, the all-D-retro-inverso JNK-inhibitor (poly-)peptide of SEQ ID NO: 197 and the JNK inhibitor (poly-)peptide of SEQ ID NO: 172, at three dose levels in a mouse model of scopolamine-induced dry eye.
# The study consisted of a total of 9 groups of female C57BL/6 mice, comprising 8 groups of 12 mice each and an additional group of 4 mice. Bilateral short-term dry eye was induced by a combination of scopolamine hydrobromide (Sigma-Aldrich Corp., St. Louis, Mo.) injection (subcutaneous (SC), four times daily, 0.5 mg/dose, Days 0-21) and by exposing mice to the drying environment of constant air draft. […] Mice of Group 9 were maintained as un-induced, (no dry eye) untreated controls.
# During the in-life (treatment) period, clinical observations were recorded once daily; slit-lamp examination (SLE) with corneal fluorescein staining, tear break-up time test (TBUT), and phenol red thread test (PRTT) were performed three times per week. Necropsies were performed on Day 22; eyes, eye lids, conjunctivae, and lacrimal glands were collected from both eyes of each animal. Tissues from the right eyes (oculus dexter, OD) were fixed and then evaluated microscopically. Tissues from the left eyes (oculus sinister; OS) were flash-frozen in liquid nitrogen and stored frozen at −80° C. for possible subsequent analyses.
# The TBUT test was conducted three times weekly by measuring the time elapsed in seconds between a complete blink after application of fluorescein to the cornea and the appearance of the first random dry spot in the tear film. […] At least ninety seconds later, corneal epithelial damage was graded using a slit-lamp with a cobalt blue filter after another drop of 0.1% fluorescein was reapplied to the cornea; the cornea then was scored per the Draize ocular scale.
# Tear production was measured three times a week in both eyes using PRTT test strips (Zone-Quick; Menicon, Nagoya, Japan). Prior to the first treatment of the day, a thread was applied to the lateral canthus of the conjunctival fornix of each eye for 30 seconds under slit-lamp biomicroscopy. Tear migration up the tread (i.e., the length of the wetted cotton thread) was measured using a millimeter scale.
# At necropsy on Day 22, both eyes from each animal, including the globes, lacrimal glands, eyelids, and conjunctivae, were excised. The right eye and associated tissues were fixed by overnight submersion in modified Davidson's solution followed by transfer to 10% neutral buffered formalin (NBF). The fixed tissues of the right eye were dehydrated, embedded in paraffin, sectioned at 3 to 5-μm thicknesses, and slide-mounted tissues were stained with hematoxylin and eosin (H & E). Stained slides were evaluated via light microscopy. Detailed and complete histopathologic assessment was conducted on all parts of the eye, with at least two section levels being examined histopathologically for each right eye. Special attention was paid to the cornea, epithelia (including goblet cells) of the conjunctiva and cornea, as well as the lacrimal gland. These tissues were scored for injury based upon a 0-4 scale, with 0 being normal, 1 being minimal, 2 being mild, 3 being moderate, and 4 being severe. For each cornea, scores were based on corneal epithelium thickness, and corneal inflammation. Conjunctivae were scored for erosion and inflammation as well as presence or absence of goblet cells.
# [4] = 2 mg/kg i.v., 24 hours after LPS
substance,measurement,setting,value
"dqsrpvqpflnlttprkprpprrrqrrkkrg ([dD][dQ][dS][dR][dP][dV][dQ][dP][dF][dL][dN][dL][dT][dT][dP][dR][dK][dP][dR][dP][dP][dR][dR][dR][dQ][dR][dR][dK][dK][dR]G) [SEQ ID NO: 197, reference compound]",CD3/CD28-induced IL-2 release,[1],Dose-dependent inhibition
same,"EIU clinical score, median",[2]; [4],2
same,decrease of EIU scores compared with vehicle group,[2]; [4],40%
same,"EIU clinical score, mean±SEM","[2]; 2 mg/kg i.v., 24 hours after LPS, scale 0 to 4 (+1)",2.2±0.3
same,endotoxin-induced inflammation in the anterior chamber,[2]; single intravenous injection 2 mg/kg,partially prevented the endotoxin-induced inflammation
same,Mean PRTT AUC,"[3]; Day 7-21, high dose 0.6% (SEQ ID NO: 197 Group 4; SEQ ID NO: 172 Group 7)",43.17
same,Mean PRTT AUC,"[3]; Day 7-21, low dose (SEQ ID NO: 197 0.06% Group 2; SEQ ID NO: 172 0.05% Group 5)",39.96
same,Mean PRTT AUC,"[3]; Day 7-21, mid dose (SEQ ID NO: 197 0.25% Group 3; SEQ ID NO: 172 0.2% Group 6)",42.79
same,Mean Calculated TBUT AUC,"[3]; Day 7 to Day 21, high dose 0.6% (SEQ ID NO: 197 Group 4; SEQ ID NO: 172 Group 7)",89.98
same,Mean Calculated TBUT AUC,"[3]; Day 7 to Day 21, low dose (SEQ ID NO: 197 0.06% Group 2; SEQ ID NO: 172 0.05% Group 5)",88.54
same,Mean Calculated TBUT AUC,"[3]; Day 7 to Day 21, mid dose (SEQ ID NO: 197 0.25% Group 3; SEQ ID NO: 172 0.2% Group 6)",91.19
same,PRTT change with dose,"[3]; SEQ ID NO: 197 0.06%, 0.25% and 0.6%, Groups 2, 3 and 4",generally dose-dependent increases in PRTT
same,TBUT change with dose,"[3]; SEQ ID NO: 197 low, mid and high dose (Groups 2-4)",slight generally dose-dependent increases in TBUT
same,corneal changes (histology) compared with other treatment groups,[3]; low dose SEQ ID NO: 197 (Group 2),slightly more severe
same,histological cornea scores compared with cyclosporine group,"[3]; mid and high-dose SEQ ID NO: 172 (Groups 6, 7), high-dose SEQ ID NO: 197 (Group 4)",not significantly different than the cyclosporine group scores
